Test results published in patent US6642392B1 (priority 1997, dated 2003).
Like-named read-outs stand apart in the source and are kept apart here.

What was measured:
Assay type in all cases: in vivo
[1] = test system: Pyricularia oryzae; settings: for Test C disease control rating: rice blast; for Test C disease control rating (100 = 100% disease control, 0 = no disease control): rice seedlings sprayed to run-off, inoculated the following day, rating relative to controls, unmarked compounds (standard test rate)
[2] = test system: Puccinia recondita; assay: Test B: wheat leaf rust, preventive spray on wheat seedlings; settings: for Test B disease control rating: wheat leaf rust; for Test B disease control rating (100 = 100% disease control, 0 = no disease control): wheat seedlings sprayed to run-off, inoculated the following day, rating relative to controls, unmarked compounds (standard test rate)
Method in brief: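 Wheat seedlings were sprayed to run-off with compound (3% acetone, 250 ppm Trem 014), then inoculated with P. recondita spores the next day. They were held 24 h saturated at 20 °C, then 6 days at 20 °C. Ratings are 0–100% disease control versus controls.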

[3] = test system: Phytophthora infestans; settings: for Test D disease control rating: tomato late blight; for Test D disease control rating (100 = 100% disease control, 0 = no disease control): tomato seedlings sprayed to run-off, inoculated the following day, rating relative to controls, unmarked compounds (standard test rate)
[4] = test system: Eiysiphe graminis f. sp. tritici; assay: Test A: wheat powdery mildew, preventive spray on wheat seedlings; settings: for Test A disease control rating: wheat powdery mildew; for Test A disease control rating (100 = 100% disease control, 0 = no disease control): wheat seedlings sprayed to run-off, inoculated the following day, rating relative to controls, unmarked compounds (standard test rate)
Method in brief: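 Compounds (3% acetone, 250 ppm Trem 014) sprayed to run-off on wheat seedlings, inoculated next day with spore dust. Incubated 7 days at 20° C before disease rating, 0–100% control relative to untreated controls.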

[5] = test system: Botrytis cinerea; assay: Test E: gray mold, preventive spray on cucumber seedlings; settings: for Test E disease control rating: gray mold on cucumber; for Test E disease control rating (100 = 100% disease control, 0 = no disease control): cucumber seedlings sprayed to run-off, inoculated the following day, rating relative to controls, unmarked compounds (standard test rate)
Method in brief: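 Compounds in 3% acetone were suspended with 250 ppm Trem 014 surfactant and sprayed to run-off on cucumber seedlings. B. cinerea spores were inoculated next day, then 48 h saturated humidity at 20° C and 5 days at 20° C. Disease control rated 0–100% versus controls.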

[6] = 100 = 100% disease control, 0 = no control, unmarked entries (standard test concentration)
[7] = 100 = 100% disease control, 0 = no control relative to controls, unmarked entries (standard test concentration)

| Compound | Test C disease control rating [1, 6] [%] | Test B disease control rating [2, 6] [%] | Test D disease control rating [3, 6] [%] | Test A disease control rating [4, 7] [%] | Test E disease control rating [5, 6] [%] | Test C disease control rating (100 = 100% disease control, 0 = no disease control) [1] [%] | Test B disease control rating (100 = 100% disease control, 0 = no disease control) [2] [%] | Test D disease control rating (100 = 100% disease control, 0 = no disease control) [3] [%] | Test A disease control rating (100 = 100% disease control, 0 = no disease control) [4] [%] | Test E disease control rating (100 = 100% disease control, 0 = no disease control) [5] [%] | further results |
| --- | --- | --- | --- | --- | --- | --- | --- | --- | --- | --- | --- |
| C[C@H](COc1cc(Cl)cc(Cl)c1Cl)NC(=O)C(C#N)C(C)(C)C (single isomer, unassigned) [170b] | 53 | 68 | 23 | 61 | 95 |  |  |  |  |  |  |
| CCC1(C(=O)NC(C)COc2cccc(C)c2)C(C)C1(Cl)Cl (mixture of isomers) [compound 96] |  |  |  |  |  |  |  |  |  |  | Test C disease control rating ([1]; tested at 40 ppm): 0%; Test B disease control rating ([2]; tested at 40 ppm): 0%; Test D disease control rating ([3]; tested at 40 ppm): 90%; Test A disease control rating ([4]; tested at 40 ppm): 0%; Test E disease control rating ([5]; tested at 40 ppm): 0% |
| CC(COc1ccccc1Cl)NC(=O)C(C#N)C(C)(C)C (mixture of isomers) [5b] | 100 | 86 | 24 | 0 | 0 |  |  |  |  |  |  |
| CC(COc1ccc(F)cc1)NC(=O)C(C#N)C(C)(C)C (mixture of isomers) [4c] | 94 | 0 | 0 | 35 | 58 |  |  |  |  |  |  |
| C=CC(C)(CF)C(C#N)C(=O)NC(C)COc1cc(F)ccc1Cl (mixture of isomers) [compound 220] |  |  |  |  |  | 100 | 0 | 85 | 0 | 0 |  |
| C[C@H](COc1cc(F)cc(F)c1Cl)NC(=O)C(C#N)C(C)(C)C (single isomer, unassigned) [169b] | 97 | 0 | 0 | 0 | 0 |  |  |  |  |  |  |
| CC(CCn1cc(Cl)cc1C#N)NC(=O)C(C#N)C(C)C(C)(C)C (mixture of isomers) [compound 74] | 53 | 86 | 23 | 0 | 0 |  |  |  |  |  |  |
| CCC1(C(=O)NC(C)COc2cc(F)cc(F)c2C#N)C(C)C1(Cl)Cl (mixture of isomers) [compound 135] | 53 | 0 | 2 | 0 | 0 |  |  |  |  |  |  |
| C[C@H](COc1ccc(Cl)c(F)c1)NC(=O)C(C#N)C(C)(C)C (single isomer, unassigned) [182a] | 0 | 0 | 0 | 0 | 0 |  |  |  |  |  |  |
| CCCc1cccc(C#N)c1OCC(C)NC(=O)C(C#N)C(C)C(C)(C)C (mixture of isomers) [compound 276] |  |  |  |  |  | 0 | 0 | 0 | 0 | 94 |  |
| C[C@H](COc1ccc(F)c(Cl)c1)NC(=O)C(C#N)C(C)(C)C (single isomer, unassigned) [183a] | 86 | 28 | 35 | 0 | 0 |  |  |  |  |  |  |
| CCC1(C(=O)NC(C)COc2ccc(F)cc2Cl)C(C)C1(Cl)Cl (centres unmarked) [compound 121] |  |  |  |  |  |  |  |  |  |  | Test C disease control rating ([1]; tested at 40 ppm): 53%; Test B disease control rating ([2]; tested at 40 ppm): 0%; Test D disease control rating ([3]; tested at 40 ppm): 0%; Test A disease control rating ([4]; tested at 40 ppm): 71%; Test E disease control rating ([5]; tested at 40 ppm): 0% |
| CCC1(C(=O)NCC(C)=Cc2cc(Cl)ccc2Cl)C(C)C1(Cl)Cl (centres unmarked) [compound 270] |  |  |  |  |  | 91 | 0 | 96 | 77 | 0 |  |
| CCC1(C(=O)NCC=Cc2cccc(F)c2)C(C)C1(Cl)Cl (centres unmarked) [compound 264] |  |  |  |  |  | 90 | 0 | 54 | 0 | 94 |  |
| C#CC(C)(C=C)C(C#N)C(=O)NC(C)COc1cc(F)ccc1Cl (mixture of isomers) [compound 303] |  |  |  |  |  | 99 | 0 | 100 | 0 | 0 |  |
| CCC1(C(=O)NC(C)COc2cc(F)c(F)cc2F)C(C)C1(Cl)Cl (centres unmarked) [compound 110] |  |  |  |  |  |  |  |  |  |  | Test C disease control rating ([1]; tested at 40 ppm): 97%; Test B disease control rating ([2]; tested at 40 ppm): 0%; Test D disease control rating ([3]; tested at 40 ppm): 0%; Test A disease control rating ([4]; tested at 40 ppm): 90%; Test E disease control rating ([5]; tested at 40 ppm): 0% |
| Cc1c(Br)cc(C#N)n1OCC(C)NC(=O)C(C#N)C(C)C(C)(C)C (mixture of isomers) [compound 70] | 0 | 0 | 13 | 63 | 0 |  |  |  |  |  |  |
| C=CC(C)(CF)C(C#N)C(=O)NC(C)COc1cc(Cl)ccc1Cl (mixture of isomers) [compound 219] |  |  |  |  |  | 99 | 86 | 96 | 86 | 0 |  |
| CC(COc1cccc(F)c1)NC(=O)C(C#N)C(C)(C)C (single isomer, unassigned) [3c] | 100 | 0 | 4 | 38 | 0 |  |  |  |  |  |  |
| CCC1(C(=O)NC(C)COc2ccc(Cl)c(Cl)c2)C(C)C1(Cl)Cl (centres unmarked) [compound 230] |  |  |  |  |  | 53 | 0 | 0 | 0 | 45 |  |
| CC(COc1cccc(Br)c1)NC(=O)C(C#N)C(C)(C)C (mixture of isomers) [9a] | 53 | 0 | 0 | 0 | 0 |  |  |  |  |  |  |
| CCC(=CCNC(=O)C1(CC)C(C)C1(Cl)Cl)c1cc(Cl)ccc1Cl (centres unmarked) [compound 262] |  |  |  |  |  | 53 | 0 | 99 | 98 | 0 |  |
